In PMC5995653 (Journal of pharmacological and toxicological methods, 2018):
Read-outs that look alike come from different tables or passages of the source.

Assays:
hSERT [1] = target: T1, hSERT (Homo sapiens, UniProt P31645); experiment: SERT reuptake inhibition in transfected hSERT-HEK293 cells; assay type: cell-based; details: unpublished results of the authors' group
hSERT [2] = target: T1, hSERT; details: read-out: Reuptake inhibition activity IC50, hSERT, JAR cells
rSERT = rSERT (Rattus norvegicus, UniProt P31652); details: read-out: Ki, rSERT, synaptosomes; cited from earlier work
rSERT, sequence (P31652 whole entry): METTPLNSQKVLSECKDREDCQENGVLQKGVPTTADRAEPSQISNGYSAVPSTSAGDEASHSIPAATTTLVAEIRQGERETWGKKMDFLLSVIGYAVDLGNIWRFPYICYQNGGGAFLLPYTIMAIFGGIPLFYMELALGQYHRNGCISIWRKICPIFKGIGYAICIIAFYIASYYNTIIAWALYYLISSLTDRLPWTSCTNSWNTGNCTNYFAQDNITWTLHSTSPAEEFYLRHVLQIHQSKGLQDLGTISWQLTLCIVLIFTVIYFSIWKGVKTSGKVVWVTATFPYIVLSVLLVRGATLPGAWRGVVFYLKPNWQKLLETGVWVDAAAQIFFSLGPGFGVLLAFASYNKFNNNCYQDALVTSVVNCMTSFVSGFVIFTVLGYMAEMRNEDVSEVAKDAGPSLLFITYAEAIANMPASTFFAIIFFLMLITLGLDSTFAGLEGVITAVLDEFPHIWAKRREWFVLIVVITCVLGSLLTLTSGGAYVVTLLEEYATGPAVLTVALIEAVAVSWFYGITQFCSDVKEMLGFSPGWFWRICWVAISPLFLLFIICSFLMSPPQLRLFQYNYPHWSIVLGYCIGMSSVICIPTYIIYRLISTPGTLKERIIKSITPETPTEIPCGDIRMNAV

hSERT [3] = target: T1, hSERT; details: read-out: Reuptake inhibition activity IC50, hSERT-HEK293 cells; cited from earlier work

T1 sequence (P31645 whole entry): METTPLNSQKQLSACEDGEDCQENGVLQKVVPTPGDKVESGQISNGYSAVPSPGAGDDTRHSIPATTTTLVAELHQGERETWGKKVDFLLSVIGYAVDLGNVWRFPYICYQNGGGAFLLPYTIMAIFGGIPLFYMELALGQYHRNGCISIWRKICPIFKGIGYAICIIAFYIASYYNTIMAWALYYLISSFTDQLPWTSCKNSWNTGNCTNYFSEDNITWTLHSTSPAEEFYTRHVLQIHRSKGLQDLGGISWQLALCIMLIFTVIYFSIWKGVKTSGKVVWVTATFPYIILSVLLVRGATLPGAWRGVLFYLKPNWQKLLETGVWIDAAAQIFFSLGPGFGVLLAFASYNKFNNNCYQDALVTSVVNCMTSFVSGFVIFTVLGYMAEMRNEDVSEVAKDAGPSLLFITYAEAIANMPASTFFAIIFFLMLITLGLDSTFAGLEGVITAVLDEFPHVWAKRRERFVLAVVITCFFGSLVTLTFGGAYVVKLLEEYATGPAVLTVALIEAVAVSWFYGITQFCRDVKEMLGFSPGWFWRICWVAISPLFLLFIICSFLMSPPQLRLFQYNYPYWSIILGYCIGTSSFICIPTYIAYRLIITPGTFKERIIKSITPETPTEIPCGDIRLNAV

| Structure (SMILES) | Activity in hSERT-HEK293 cells (in words) (hSERT [1]) | IC50 (hSERT [2]) | Ki (rSERT) | IC50 (hSERT [3]) |
| --- | --- | --- | --- | --- |
| Fc1ccc(C(OCCN2CCN(CCCc3ccccc3)CC2)c2ccc(F)cc2)cc1 [GBR12909] | inactive | – | – | – |
| COC(=O)[C@H]1C(c2ccc(I)cc2)C[C@@H]2CC[C@H]1N2C (stereo partly drawn) [RTI-55] | – | 1.31 ± 0.1 nM | 1 nM | 0.51 ± 0.14 nM |
| CN1[C@H]2CC[C@@H]1[C@@H](C(=O)N1CCCC1)[C@@H](c1ccc(I)cc1)C2 [RTI-229] | – | 589 ± 42 nM | 362 nM | – |
